Source: patent US20250109139A1, “TRICYCLIC COMPOUND, AND PREPARATION METHOD THEREFOR AND USE THEREOF” (SHANGHAITECH UNIVERSITY, priority 2022, published 2025)
Read-outs that look alike come from different tables or passages of the source.

Legend:
[1] = target: T1, dopamine D2 receptors (Homo sapiens (Human), UniProt P14416); assay: Dopamine D2 receptor β-arrestin2 BRET (recruitment); assay type: cell-based; conditions: for Emax: relative to endogenous ligand dopamine, read-out: β-arrestin2 BRET Emax % ± SEM
T1 sequence (P14416 whole entry): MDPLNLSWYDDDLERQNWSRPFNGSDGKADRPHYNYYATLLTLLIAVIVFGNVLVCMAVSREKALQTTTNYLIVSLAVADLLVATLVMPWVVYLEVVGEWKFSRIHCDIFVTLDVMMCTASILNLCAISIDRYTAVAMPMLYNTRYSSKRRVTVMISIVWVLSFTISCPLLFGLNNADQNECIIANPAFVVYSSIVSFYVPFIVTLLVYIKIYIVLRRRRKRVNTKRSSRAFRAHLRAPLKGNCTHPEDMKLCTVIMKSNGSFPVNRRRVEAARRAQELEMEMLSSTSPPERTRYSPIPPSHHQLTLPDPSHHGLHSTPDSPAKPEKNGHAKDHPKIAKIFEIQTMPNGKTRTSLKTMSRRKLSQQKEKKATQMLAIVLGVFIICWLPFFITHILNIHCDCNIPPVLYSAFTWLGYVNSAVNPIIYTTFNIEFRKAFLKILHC
Method: (§1) To examine the downstream G-protein signaling pathway mediated by dopamine D2 receptors, on the first day, a 6 cm culture dish was used for transfection with 1 μg of dopamine D2 receptors, 1 μg of Gαi1 containing C-terminal seaweed luciferase (Gαi1-Rluc), 1 μg of Gβ3, 1 μg of Gγ9 containing C-terminal green fluorescent protein (Gγ9-GFP) mixed with 16 μL of PEI. At the same time, in order to examine the downstream β-arrestin2 signaling pathway mediated by dopamine D2 receptors, on the first day, a 6 cm culture dish was used for transfection with […] of dopamine D2 receptors containing C-terminal seaweed luciferase (D2-Rluc), […] of G protein-coupled receptor kinase 2 (GRK2), […] of β-arrestin2 containing N-terminal green fluorescent protein (GFP2-ARRB2) mixed with 14 μL of PEI. The next day, the confluent cells of a 6 cm culture dish were digested and reseeded into a 96-well plate with 100 μL of culture medium added to each well. On the third day, the drugs were added for test. The 96-well plate was taken out from the cell incubator to decant the culture medium, 40 μL of the substrate coelenterazine 400a (final concentration of 5 μM) was added to each well, and then 20 μL of different drugs were added sequentially from left to right to ensure that the final concentration of the drug decreased gradually from bottom to top, with two replicates per treatment. Finally, the prepared samples were loaded on machine for test. The machine readout value reflected the recruitment of β-arrestin2 to the membrane or the dissociation of G protein trimer. The former indicated the degree of activation of the β-arrestin2 signaling pathway downstream of the dopamine D2 receptors, and the latter indicated the degree of activation of the G protein signaling pathway downstream of the dopamine D2 receptors.

[2] = target: T1, dopamine D2 receptors; assay: Dopamine D2 receptor Gαi1 BRET (G protein trimer dissociation); assay type: cell-based; conditions: for Emax: relative to endogenous ligand dopamine, read-out: Gαi1 BRET Emax % ± SEM
Method: as §1

[3] = target: T1, dopamine D2 receptors; assay: Dopamine D2 receptor radioligand competition binding assay ([3H]-Methylspiperone); conditions: [3H]-Methylspiperone 0.3 to 0.5 nM, 293T membranes
Method: The affinity of the compounds of the present disclosure for dopamine D2 receptors was determined by a radioligand competition binding assay.
In the first step, a cell membrane component containing specific dopamine D2 receptors was prepared. A 10 cm culture dish was used for transfection with […] of dopamine D2 receptors and 40 μL of polyethylenimine (PEI hereafter). […] A vacuum pump was used to suck off the culture medium, 3 mL of lysis buffer was added to each culture dish, and the cells were placed in a 4° C. cold room for 10 minutes. After the cells were detached, the cells were transferred to a 15 mL centrifuge tube and centrifuged at 1500 rpm for 5 minutes at 4° C., and the supernatant was discarded. The cell pellet was transferred to a tissue homogenizer, and 3 mL of lysis buffer was added and fully ground until the cells were broken. Then, cell suspension was equally aliquoted into several EP tubes, centrifuged at 12000 rpm for 5 minutes at 4° C., and the supernatant was discarded. The precipitate was the cell membrane component containing the dopamine D2 receptors.
First, a standard binding buffer was added to the cell membrane component containing the dopamine D2 receptors, and the cell membrane was disrupted and resuspended with an electric tissue homogenizer. 30 μL of membrane protein suspension was added to each well of a 96-well plate. Then, 30 μL of different drugs were added to the 96-well plate sequentially from bottom to top to ensure that the final drug concentrations were 10^−5 M, 10^−6 M, 10^−7 M, 10^−8 M, 10^−9 M, and 0 M, with two replicates per treatment. Next, 30 μL of [3H]-Methylspiperone was added to each well of the 96-well plate. The plate was incubated at room temperature in the dark for 2 hours. Detection was conducted. The machine readout value reflected the amount of [3H]-Methylspiperone bound on the membrane, and after further data processing, the affinity Ki values of different compounds for the dopamine D2 receptors were obtained.

[4] = unit printed only in Cariprazine cell, read-out: β-arrestin2 BRET EC50
[5] = unit printed only in Cariprazine cell, read-out: Gαi1 BRET EC50
[6] = read-out: Gαi1 BRET pEC50 ± SEM (converted)
[7] = read-out: Affinity pKi ± SEM (converted)

SMILES	Emax [1] [%]	EC50 [1, 4] [nM]	Emax [2] [%]	EC50 [2, 5] [nM]	Affinity pKi ± SEM [3]	Ki ([3]; read-out: Affinity Ki) [nM]	Gαi1 BRET pEC50 ± SEM [2]	EC50 [2, 6] [nM]	Ki [3, 7] [nM]	EC50 ([1]; read-out: β-arrestin2 BRET pEC50 ± SEM (converted)) [nM]	β-arrestin2 BRET pEC50 ± SEM [1]
CCOc1cccc2c1cc1n2CCN(CC[C@H]2CC[C@H](NC(=O)N(C)C)CC2)C1 [I-C11, 3-(trans-4-(2-(9-ethoxy-3,4-dihydropyrazino[1,2-a]indol-2(1H)-yl)ethyl)cyclohexyl)-1,1-dimethylurea]	45	128	23	39.8							
COc1cccc2c1nc1n2CCN(CCCOc2ccc3ccc(=O)[nH]c3c2)C1 [I-D3, 7-(3-(9-methoxy-3,4-dihydrobenzo[4,5]imidazo[1,2-a]pyrazin-2(1H)-yl)propoxy)quinolin-2(1H)-one]	97	18.3	71	130							
COc1cccc2c3c(oc12)CN(C/C=C/COc1ccc2ccc(=O)[nH]c2c1)CC3 [I-A10, (E)-7-((4-(8-methoxy-3,4-dihydrobenzofuro[2,3-c]pyridin-2(1H)-yl)but-2-en-1-yl)oxy)quinolin-2(1H)-one]	107	4.61	27	61.3	(6.85 ± 0.19)	139	(7.21 ± 0.12)				
COc1cccc2c1nc1n2CCN(CC2(O)CCCCC2)C1 [I-D7, 1-((9-methoxy-3,4-dihydrobenzo[4,5]imidazo[1,2-a]pyrazin-2(1H)-yl)methyl)cyclohexan-1-ol]	41	180	67	79				95.5			
COc1cccc2c1nc1n2CCN(CCCCOc2ccc3ccc(=O)[nH]c3c2)C1 [I-D1, 7-(4-(9-methoxy-3,4-dihydrobenzo[4,5]imidazo[1,2-a]pyrazin-2(1H)-yl)butoxy)quinolin-2(1H)-one]	100	56	77	267				263			
COc1cccc2c1nc1n2CCN(CCCOc2ccc3c(c2)NC(=O)CC3)C1 [I-D4, 7-(3-(9-methoxy-3,4-dihydrobenzo[4,5]imidazo[1,2-a]pyrazin-2(1H)-yl)propoxy)-3,4-dihydroquinolin-2(1H)-one]	89	33.6	81	159							
COc1cccc2c1cc1n2CCN(C/C=C/COc2ccc3c(c2)NC(=O)CC3)C1 [I-C6, (E)-7-((4-(9-methoxy-3,4-dihydropyrazino[1,2-a]indol-2(1H)-yl)but-2-en-1-yl)oxy)-3,4-dihydroquinolin-2(1H)-one]	92	2.45	49	276							
COc1cccc2c1cc1n2CCN(CC2(O)CCCCC2)C1 [I-C12, 1-((9-methoxy-3,4-dihydropyrazino[1,2-a]indol-2(1H)-yl)methyl)cyclohexan-1-ol]	52	54.4	66	23.4				38.9			
CCOc1cccc2c3c([nH]c12)CN(CCCOc1ccc2ccc(=O)[nH]c2c1)CC3 [I-B4, 7-(3-(8-ethoxy-1,3,4,9-tetrahydro-2H-pyrido[3,4-b]indol-2-yl)propoxy)quinolin-2(1H)-one]					(6.13 ± 0.26)	728					
CCOc1cccc2c3c([nH]c12)CN(CCCCOc1ccc2ccc(=O)[nH]c2c1)CC3 [I-B2, 7-(4-(8-ethoxy-1,3,4,9-tetrahydro-2H-pyrido[3,4-b]indol-2-yl)butoxy)quinolin-2(1H)-one]						78.9			77.6		
CCOc1cccc2c3c([nH]c12)CN(CCCOc1ccc2c(c1)NC(=O)CC2)CC3 [I-B6, 7-(3-(8-ethoxy-1,3,4,9-tetrahydro-2H-pyrido[3,4-b]indol-2-yl)propoxy)-3,4-dihydroquinolin-2(1H)-one]					(6.58 ± 0.41)	266					
CCOc1cccc2c3c(oc12)CN(CC[C@H]1CC[C@H](NC(=O)N(C)C)CC1)CC3 [I-A17, 3-(trans-4-(2-(8-ethoxy-3,4-dihydrobenzofuro[2,3-c]pyridin-2(1H)-yl)ethyl)cyclohexyl)-1,1-dimethylurea]	29	6.7	49	4.37				3.67			
COc1cccc2c1nc1n2CCN(CCCCOc2ccc3c(c2)NC(=O)CC3)C1 [I-D2, 7-(4-(9-methoxy-3,4-dihydrobenzo[4,5]imidazo[1,2-a]pyrazin-2(1H)-yl)butoxy)-3,4-dihydroquinolin-2(1H)-one]	106	70.1	71	355				324		69.2	
CCOc1cccc2c1cc1n2CCN(CCCCOc2ccc3ccc(=O)[nH]c3c2)C1 [I-C10, 7-(4-(9-ethoxy-3,4-dihydropyrazino[1,2-a]indol-2(1H)-yl)butoxy)quinolin-2(1H)-one]	49	828	20	118				120			
COc1cccc2c3c([nH]c12)CN(CC1(O)CCCCC1)CC3 [I-B9, 1-((8-methoxy-1,3,4,9-tetrahydro-2H-pyrido[3,4-b]indol-2-yl)methyl)cyclohexan-1-ol]	51	133	14	43.3				61.7			
COc1cccc2c3c([nH]c12)CN(CCCOc1ccc2c(c1)NC(=O)CC2)CC3 [I-B5, 7-(3-(8-methoxy-1,3,4,9-tetrahydro-2H-pyrido[3,4-b]indol-2-yl)propoxy)-3,4-dihydroquinolin-2(1H)-one]	76	6.53	35	43.6							
COc1cccc2c1nc1n2CCN(C/C=C/COc2ccc3c(c2)NC(=O)CC3)C1 [I-D5, (E)-7-((4-(9-methoxy-3,4-dihydrobenzo[4,5]imidazo[1,2-a]pyrazin-2(1H)-yl)but-2-en-1-yl)oxy)-3,4-dihydroquinolin-2(1H)-one]	66	38.8	46	160				162			
COc1cccc2c1nc1n2CCN(CC[C@H]2CC[C@H](NC(=O)N(C)C)CC2)C1 [I-D6, 3-(trans-4-(2-(9-methoxy-3,4-dihydrobenzo[4,5]imidazo[1,2-a]pyrazin-2(1H)-yl)ethyl)cyclohexyl)-1,1-dimethylurea]						16.8			12.9		
COc1cccc2c3c([nH]c12)CN(CCC1CC(NC(=O)N(C)C)C1)CC3 (stereo not shown) [I-B10, 3-(3-(2-(8-methoxy-1,3,4,9-tetrahydro-2H-pyrido[3,4-b]indol-2-yl)ethyl)cyclobutyl)-1,1-dimethylurea]					(7.63 ± 0.57)	23.2					
COc1cccc2c3c(oc12)CN(CCCCOc1ccc2ccc(=O)n(C)c2c1)CC3 [I-A4, 7-(4-(8-methoxy-3,4-dihydrobenzofuro[2,3-c]pyridin-2(1H)-yl)butoxy)-1-methylquinolin-2(1H)-one]	65	81.2	55	709			(6.16 ± 0.06)				(7.17 ± 0.18)
COc1cccc2c3c(oc12)CN(CCNC(=O)C1CCOCC1)CC3 [I-A14, N-(2-(8-methoxy-3,4-dihydrobenzofuro[2,3-c]pyridin-2(1H)-yl)ethyl)tetrahydro-2H-pyran-4-carboxamide]						752					
